The text below walks through data of publication PMC6010128, “Structure–activity relationship investigation of tertiary amine derivatives of cinnamic acid as acetylcholinesterase and butyrylcholinesterase inhibitors: compared with that of phenylpropionic acid, sorbic acid and hexanoic acid” (Journal of Enzyme Inhibition and Medicinal Chemistry, 2018).

The structures appear in SMILES notation. Where two headings read alike, the source gives them in different places.

In one series the target is BChE (Rattus norvegicus, UniProt Q9JKC1). Briefly: biochemical. Also noted: species or system Sprague–Dawley rat.
The nature of series [1]: pKa by pH-titration method. In kind it is physicochemical. As to the method: pKa is determined by pH-titration method according to the report. The titration curve E vs. VT was recorded and pKa value was calculated.
Series [2] addresses T1, AChE (Rattus norvegicus, UniProt P37136). Briefly: Kinetic study of AChE inhibition (Lineweaver–Burk). The series is classed as biochemical. As to the method:
Kinetic characterization of AChE was performed by a reported method. Compound 6g was added into the assay solution and preincubated with the enzyme at 30 °C, followed by the addition of 100 μL acetylthiocholine iodide including five concentrations. The assay solution contained 100 μL compound 6g, 100 μL DTNB, 2.79 ml 0.1 mol/l Na2HPO4/NaH2PO4 buffer (pH 7.4). Kinetic profile of the hydrolysis of acetylthiocholine iodide catalyzed by AChE was determined by the UV–Vis spectrometry at 412 nm. The parallel control experiment was carried out without compound 6g in the mixture.
Compound 6g was selected for further kinetic study since it had the strongest inhibiting activity against AChE among new synthesized compounds.
Fig. 2 Lineaweaver–Burk plot for the inhibition of AChE by compound 6g
Table 2 Kinetic parameters of AChE inhibited by compound 6g
C Michaelis-Menten Km Vmax Ki Ki’
(µmol/L) equation (mmol/L) (ΔAmin-1) (µmol//L) (µmol/L)
(1 picture or pasted object on this page, not shown here)

Series [3] is described as follows: Log P by shake flask method. The series is classed as physicochemical. To be noted: octanol / PBS pH = 7.4, shake flask. As to the method: Log P is defined as the logarithm of octanol–water partition coefficient. […] Ultraviolet spectrophotometry was applied to determine the concentration of compounds. Log p values were calculated based on the data in triplicate.

Series [4] addresses T1, AChE. As to the kind of experiment: biochemical.
[5] abbreviates: rat serum BChE, Mean ± SD, triplicate.
[6] abbreviates: rat brain AChE, Mean ± SD, triplicate.

T1 sequence (P37136 32-614): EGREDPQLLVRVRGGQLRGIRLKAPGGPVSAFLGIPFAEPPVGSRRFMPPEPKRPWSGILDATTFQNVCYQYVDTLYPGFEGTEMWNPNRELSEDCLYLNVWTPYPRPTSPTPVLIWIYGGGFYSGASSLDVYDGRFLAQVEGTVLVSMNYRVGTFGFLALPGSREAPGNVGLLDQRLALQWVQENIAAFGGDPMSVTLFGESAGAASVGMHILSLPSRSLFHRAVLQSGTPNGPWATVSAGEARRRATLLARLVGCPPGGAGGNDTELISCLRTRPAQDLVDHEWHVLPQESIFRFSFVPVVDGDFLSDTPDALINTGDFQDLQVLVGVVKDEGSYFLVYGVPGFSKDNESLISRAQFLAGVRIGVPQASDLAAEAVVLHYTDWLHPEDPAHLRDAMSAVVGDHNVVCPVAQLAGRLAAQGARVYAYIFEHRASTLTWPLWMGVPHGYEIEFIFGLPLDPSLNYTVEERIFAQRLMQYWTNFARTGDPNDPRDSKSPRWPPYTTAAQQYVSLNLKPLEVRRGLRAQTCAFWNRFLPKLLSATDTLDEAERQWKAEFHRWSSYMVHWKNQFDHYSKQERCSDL
Sequence of BChE (Q9JKC1 24-597): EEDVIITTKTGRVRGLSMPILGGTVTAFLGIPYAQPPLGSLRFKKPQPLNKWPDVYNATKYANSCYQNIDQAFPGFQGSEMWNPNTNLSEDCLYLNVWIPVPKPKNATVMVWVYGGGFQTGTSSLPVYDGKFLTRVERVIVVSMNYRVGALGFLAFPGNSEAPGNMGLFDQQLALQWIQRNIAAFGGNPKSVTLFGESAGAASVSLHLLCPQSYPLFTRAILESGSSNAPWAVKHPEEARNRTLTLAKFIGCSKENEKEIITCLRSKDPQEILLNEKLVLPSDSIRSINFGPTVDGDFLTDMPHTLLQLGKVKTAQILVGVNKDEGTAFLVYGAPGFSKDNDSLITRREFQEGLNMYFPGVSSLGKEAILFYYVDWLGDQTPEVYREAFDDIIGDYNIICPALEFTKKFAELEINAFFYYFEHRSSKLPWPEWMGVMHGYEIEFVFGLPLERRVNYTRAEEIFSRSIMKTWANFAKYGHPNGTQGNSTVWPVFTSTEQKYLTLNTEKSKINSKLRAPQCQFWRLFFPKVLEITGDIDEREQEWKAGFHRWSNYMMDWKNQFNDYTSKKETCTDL

Consider `O=C(C=Cc1ccccc1)Nc1ccc(OCCN2CCCC2)cc1` [Compound 6g], for which the values for the IC50 against BChE (setting [5]) and against AChE [4] (setting [6]) were 104 ± 1.34 µM and 3.64 ± 0.28 µM, respectively. Moreover, the pKa in series [1] (read-out: pKa) is 6.74. Besides, the Vmax is 0.023 ΔAmin-1 at AChE [2] (AChE with 0.72 µmol/L compound 6g), 0.021 ΔAmin-1 at AChE [2] (AChE with 1.43 µmol/L compound 6g) and 0.019 ΔAmin-1 on AChE [2] (AChE with 2.86 µmol/L compound 6g). In addition, the “non-competitive constant (Ki′)” value on AChE [2] (AChE, acetylthiocholine iodide substrate) worked out at 2.14 µmol/L. The Ki on AChE [2] (AChE, acetylthiocholine iodide substrate, read-out: competitive inhibit constant (Ki)) came out at 7.27 µM. In addition, the “type of inhibition against AChE” value on AChE [2] (Lineweaver–Burk analysis) is given as “mixed-type inhibition”. The compound also gave a logP in series [3] of 1.33. For the same compound, on AChE [4] (IC50 (BChE)/IC50 (AChE)), the “Selectivity for AChE” value is recorded as 28.6.

In the case of `CCCCCC(=O)Nc1ccccc1OCCN(C)C` [Compound 22d], the IC50 at BChE was determined as 26.6 ± 1.36 µM. This compound displayed a pKa in series [1] of 7.32. Moreover, in series [3], the “Log P” value is reported as 1.23. At AChE [4], half-maximal inhibition (IC50) required 186 ± 8.22 µM and the “Selectivity for AChE” value stood at 0.14.

Consider `CCCCCC(=O)Nc1ccccc1OCCN(CC)CC` [Compound 22e], for which the concentration for half-maximal inhibition (IC50) at BChE (setting [5]) was 37.2 ± 2.24 µM; on AChE [4] (setting [6]), more than 500 µM. Moreover, in series [1] (read-out: pKa), the pKa amounted to 7.08. In series [3], the logP stood at 1.67. For the same compound, on AChE [4] (IC50 (BChE)/IC50 (AChE)), the “Selectivity for AChE” value is less than 0.07.

`CCCCCC(=O)Nc1ccccc1OCCN1CCCCC1` [Compound 22f]: the IC50 was 9.04 ± 0.27 µM against BChE (setting [5]) and 325 ± 7.65 µM against AChE [4] (setting [6]). In series [1] (read-out: pKa), the pKa turned out to be 6.99. Also, the logP in series [3] amounted to 1.11. Moreover, the “Selectivity for AChE” value at AChE [4] (IC50 (BChE)/IC50 (AChE)) turned out to be 0.03.

In the case of `CCCCCC(=O)Nc1ccccc1OCCN1CCCC1` [Compound 22g], the IC50 against BChE (setting [5]) is 18.6 ± 0.32 µM; at AChE [4] (setting [6]), more than 500 µM. In addition, the pKa in series [1] (read-out: pKa) came to 7.16. Besides, the logP in series [3] was 1.11. Also, the “Selectivity for AChE” value at AChE [4] (IC50 (BChE)/IC50 (AChE)) is less than 0.04.

As to `CCCCCC(=O)Nc1cccc(OCCN(C)C)c1` [Compound 23d], the IC50 on BChE (setting [5]) was found to be 7.89 ± 0.89 µM; at AChE [4] (setting [6]), 60.6 ± 2.18 µM. The pKa in series [1] (read-out: pKa) is 6.52. This compound yielded a log partition coefficient (logP) in series [3] of 0.37. At AChE [4] (IC50 (BChE)/IC50 (AChE)), the “Selectivity for AChE” value came to 0.13.

As for `CCCCCC(=O)Nc1cccc(OCCN(CC)CC)c1` [Compound 23e], the IC50 on BChE (setting [5]) is 0.67 ± 0.04 µM; at AChE [4] (setting [6]) it was 125 ± 4.23 µM. In addition, the pKa in series [1] (read-out: pKa) came out at 7.15. In addition, the logP in series [3] is 0.93. Besides, on AChE [4] (IC50 (BChE)/IC50 (AChE)), the “Selectivity for AChE” value is 0.01.

For the compound `CCCCCC(=O)Nc1cccc(OCCN2CCCCC2)c1` [Compound 23f], the results for the IC50 against BChE (setting [5]) and at AChE [4] (setting [6]) were 0.22 ± 0.02 µM and 76.7 ± 3.17 µM, respectively. Moreover, in series [1] (read-out: pKa), the pKa was found to be 7.32. In addition, in series [3], the logP is 1.55. Further, the “Selectivity for AChE” value on AChE [4] (IC50 (BChE)/IC50 (AChE)) was 0.002.

Turning to `CCCCCC(=O)Nc1cccc(OCCN2CCCC2)c1` [Compound 23g], the IC50 came to 0.34 ± 0.01 µM against BChE (setting [5]) and 50.7 ± 2.66 µM against AChE [4] (setting [6]). For the same compound, in series [1] (read-out: pKa), the pKa turned out to be 7.69. Also, the logP in series [3] stood at 1.37. Moreover, the “Selectivity for AChE” value on AChE [4] (IC50 (BChE)/IC50 (AChE)) was determined as 0.01.

Consider `CCCCCC(=O)Nc1ccc(OCCN(C)C)cc1` [Compound 24d], for which the IC50 on BChE (setting [5]) was found to be 33.8 ± 4.21 µM; against AChE [4] (setting [6]), 41.7 ± 2.89 µM. Also, the pKa in series [1] (read-out: pKa) is 7.16. Further, the logP in series [3] worked out at 0.72. In addition, the “Selectivity for AChE” value at AChE [4] (IC50 (BChE)/IC50 (AChE)) was found to be 0.81.

Turning to `CCCCCC(=O)Nc1ccc(OCCN(CC)CC)cc1` [Compound 24e], the IC50 on BChE (setting [5]) is 9.9 ± 1.28 µM; on AChE [4] (setting [6]) it was more than 500 µM. The pKa in series [1] (read-out: pKa) stood at 7.48. Further, in series [3], the logP turned out to be 1.1. On AChE [4] (IC50 (BChE)/IC50 (AChE)), the “Selectivity for AChE” value is less than 0.02.

`CCCCCC(=O)Nc1ccc(OCCN2CCCCC2)cc1` [Compound 24f]: the figures for the IC50 at BChE (setting [5]) and against AChE [4] (setting [6]) were 17 ± 2.03 µM and 31.7 ± 2.74 µM, respectively. Besides, the pKa in series [1] (read-out: pKa) worked out at 7.16. Also, the logP in series [3] was 1.54. Further, on AChE [4] (IC50 (BChE)/IC50 (AChE)), the “Selectivity for AChE” value is 0.54.

For the compound `CCCCCC(=O)Nc1ccc(OCCN2CCCC2)cc1` [Compound 24g], the IC50 amounted to 13.9 ± 1.66 µM against BChE (setting [5]) and 16.9 ± 0.91 µM on AChE [4] (setting [6]). Also, in series [1] (read-out: pKa), the pKa stood at 6.92. This compound gave a logP in series [3] of 0.16. Besides, the “Selectivity for AChE” value at AChE [4] (IC50 (BChE)/IC50 (AChE)) was determined as 0.82.
